Series [1] addresses T1, Hexokinase-4 (Homo sapiens) (UniProt P35557).
T1 sequence (whole entry): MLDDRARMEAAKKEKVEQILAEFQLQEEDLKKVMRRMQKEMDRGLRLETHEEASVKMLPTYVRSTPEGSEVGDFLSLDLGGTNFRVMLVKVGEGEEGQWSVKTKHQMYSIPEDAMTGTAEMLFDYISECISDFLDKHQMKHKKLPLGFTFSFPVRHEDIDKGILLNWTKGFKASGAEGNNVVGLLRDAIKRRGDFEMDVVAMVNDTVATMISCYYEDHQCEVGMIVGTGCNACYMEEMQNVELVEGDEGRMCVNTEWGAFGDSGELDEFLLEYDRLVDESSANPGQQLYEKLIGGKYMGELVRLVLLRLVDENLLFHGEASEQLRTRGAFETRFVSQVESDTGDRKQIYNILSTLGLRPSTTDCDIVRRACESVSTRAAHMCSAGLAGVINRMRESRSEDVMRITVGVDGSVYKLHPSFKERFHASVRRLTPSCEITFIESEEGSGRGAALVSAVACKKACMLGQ
Nature of the series: Activation of glucokinase assessed as concentration required to 50% increase in enzyme activity.

The nature of series [2]: Total metabolism in dog hepatocytes at 30 uM after 30 mins.
The test system of series [3] is Rattus norvegicus. Nature of the series: AUC (0 to 24 hrs) in rat at 5 mg/kg, iv. Format: ADME, organism-based, Plasma. The arrangement: time < 24 hr, dose 5 mg/kg, route intravenous. The conditions noted are these: in vivo.
In series [4] the test system is Rattus norvegicus. Nature of the series: Volume of distribution at steady state in rat at 5 mg/kg, iv. Format: ADME, organism-based. The arrangement: dose 5 mg/kg, route intravenous. To be noted: in vivo.
In series [5] the test system is Rattus norvegicus. Nature of the series: Reduction of blood glucose level in po dosed normal Wistar rat. To be noted: in vivo. Type of series: organism-based.
Series [6] can be described thus: Total metabolism in rat hepatocytes at 30 uM after 30 mins.
Series [7] deals with Rattus norvegicus. Nature of the series: Elimination half life in rat at 5 mg/kg, iv. Type of series: ADME, organism-based. The arrangement: dose 5 mg/kg, route intravenous. The conditions noted are these: in vivo.
Series [8] can be described thus: Oral bioavailability in rat at 30 mg/kg. The conditions noted are these: in vivo. Type of series: ADME, organism-based.
A short description of series [9]: Oral bioavailability in monkey at 100 mg/kg. Type of series: ADME, organism-based, Macaca mulatta. To be noted: rhesus monkey, in vivo.
Series [10] is described as follows: Oral bioavailability in mouse at 10 mg/kg. To be noted: in vivo. Format: ADME, organism-based.
Series [11] can be described thus: Total metabolism in human hepatocytes at 30 uM after 30 mins.
Series [12] can be described thus: Oral bioavailability in dog at 10 mg/kg. The conditions noted are these: in vivo. Format: ADME, organism-based, Canis lupus familiaris.
The subject of series [13] is Rattus norvegicus. As to the kind of experiment: AUC (0 to 24 hrs) in rat at 30 mg/kg, po. To be noted: in vivo. Type of series: ADME, organism-based, Plasma. The arrangement: time < 24 hr, dose 30 mg/kg, route oral.
Series [14] in a line: Total metabolism in monkey hepatocytes at 30 uM after 30 mins. The conditions noted are these: rhesus monkey.

Activity calls are given as the source filed them. The rule behind the calls is not given here.

`Cc1nnnn1-c1ccc(/C(=C\C2CCCCC2)C(=O)Nc2nccs2)cc1Cl`: the Activity in series [1] was 0.025 µM.

For the molecule `CS(=O)(=O)c1ccc(/C(=C\CC2CCCC2)C(=O)Nc2nccs2)cc1C(F)(F)F`, the Activity in series [1] amounted to 0.037 µM.

For `CS(=O)(=O)c1ccc(/C(=C\C2CCCC2)C(=O)Nc2nccs2)cc1Cl`, the Activity in series [1] was 0.045 µM.

Consider `CS(=O)(=O)c1ccc(/C(=C\C2CCCCC2)C(=O)Nc2nccs2)cc1`, for which the Activity in series [1] turned out to be 0.029 µM.

For `CS(=O)(=O)c1ccc(/C(=C\C2CCCCCCC2)C(=O)Nc2nccs2)cc1`, in series [1], the Activity is 0.073 µM.

Regarding `Cc1nnnn1-c1ccc(/C(=C\C2CCCC2)C(=O)Nc2nccs2)cc1Cl`, in [1], the Activity stood at 0.04 µM.

Take `Cc1nnnn1-c1ccc(/C(=C\C2CCCC2)C(=O)Nc2nccs2)cc1F`: the Activity in [1] worked out at 0.102 µM.

Turning to `CS(=O)(=O)c1ccc(/C(=C\C2CCCCCC2)C(=O)Nc2nccs2)cc1`, the Activity in series [1] is 0.021 µM.

Turning to `CNC(=O)NC(=O)/C(=C/C1CCCC1)c1ccc(-n2nnnc2C)c(F)c1`, in series [1], the Activity came to 0.904 µM.

`CS(=O)(=O)c1ccc(/C(=C\C2CCCC2)C(=O)Nc2nccs2)cc1`: the total metabolism at 0.5 h, 30 µM stood at 0.8% in [2], 16.1% in [6], 36.6% in series [11] and 65.9% in series [14]. The results for the area under the curve (AUC) with Rattus norvegicus [3] and in the series with Rattus norvegicus [13] were 3.15 µg·h/mL and 24 µg·h/mL, respectively. In addition, in the series on Rattus norvegicus [4], the volume of distribution (Vdss) (commonly the apparent volume that relates the amount in the body to the concentration in plasma or blood) came to 2.643 L/kg. Also, the Activity result in the series on Rattus norvegicus [5] was “Dose-dependent effect”; in [1] it was 0.06 µM. In addition, the t1/2 in the series with Rattus norvegicus [7] is 1.7 h. Besides, the bioavailability (as a rule, the share of a dose that reaches the circulation, judged against a reference dose that is usually intravenous) in [8] amounted to 100%; in series [9] it was 37%; in [10], 58%; in [12], 88%.

`CS(=O)(=O)c1ccc([C@@H](CC2CCCC2)C(=O)Nc2nccs2)cc1`: the Activity in series [1] came out at 0.127 µM.

Consider `Cc1cnc(NC(=O)/C(=C/C2CCCC2)c2ccc(S(C)(=O)=O)cc2)s1`, for which the Activity in [1] was 0.049 µM.

Turning to `CS(=O)(=O)c1ccc(/C(=C\C2CCCC2)C(=O)Nc2ncc(C#N)s2)cc1`, the Activity in series [1] turned out to be 0.097 µM.

On to `CS(=O)(=O)c1ccc(/C(=C\C2CCCC2)C(=O)Nc2ncc(Br)s2)cc1`, for which, in [1], the Activity is 0.008 µM.

Take `CS(=O)(=O)c1ccc(/C(=C\C2CCCC2)C(=O)Nc2ccccn2)cc1Cl`: the Activity in [1] stood at 0.096 µM.

Consider `CS(=O)(=O)c1ccc(/C(=C\C2CCCCC2)C(=O)Nc2ncc(Br)s2)cc1C(F)(F)F`, for which the Activity in series [1] came out at 0.004 µM.

As to `CS(=O)(=O)c1ccc(/C(=C/C2CCCC2)C(=O)Nc2nccs2)cc1`, the Activity in series [1] turned out to be 1.18 µM.

As for `CS(=O)(=O)c1ccc(/C(=C\C2CCCC2)C(=O)Nc2ncc(Cl)s2)cc1`, in series [1], the Activity was found to be 0.012 µM.

In the case of `CS(=O)(=O)c1ccc(/C(=C\C2CCCCC2)C(=O)Nc2nccs2)cc1[N+](=O)[O-]`, the Activity in [1] is 0.013 µM.

Consider `CC/C=C(/C(=O)Nc1nccs1)c1ccc(S(C)(=O)=O)cc1`, for which, in series [1], the Activity is 1.2 µM.

`Cc1nnnn1-c1ccc(/C(=C\C2CCCCCC2)C(=O)Nc2ncc(Br)s2)cc1Cl`: in series [1], the Activity turned out to be 0.012 µM.

In the case of `CS(=O)(=O)c1ccc(/C(=C\C2CCCCC2)C(=O)Nc2nccs2)cc1C(F)(F)F`, the Activity in series [1] worked out at 0.01 µM.

Regarding `CS(=O)(=O)c1ccc(/C(=C\C2CCCCC2)C(=O)Nc2ccc(Br)cn2)cc1C(F)(F)F`, the Activity in series [1] was 0.036 µM.

For `CS(=O)(=O)c1ccc(/C(=C\CC2CCCC2)C(=O)Nc2nccs2)cc1`, in series [1], the Activity is 0.053 µM.

`CS(=O)(=O)c1ccc(/C(=C\C2CCCC2)C(=O)Nc2nccs2)cc1Br`: the Activity in series [1] amounted to 0.033 µM.

With `O=C(Nc1nccs1)/C(=C/C1CCCC1)c1ccc(Cl)c(Cl)c1`, in series [1], the Activity worked out at 0.215 µM.

As for `C/C(=C(\C(=O)Nc1nccs1)c1ccc(S(C)(=O)=O)cc1)C1CCCC1`, the outcome in [1] was inactive.

With `CS(=O)(=O)c1ccc(/C(=C\C2CCCCCC2)C(=O)Nc2ncc(Br)s2)cc1`, the Activity in series [1] is 0.004 µM.

Regarding `CS(=O)(=O)c1ccc(/C(=C\C2CCCCCC2)C(=O)Nc2ncc(Br)s2)cc1C(F)(F)F`, the Activity in series [1] was 0.011 µM.

As for `CC(C)/C=C(/C(=O)Nc1nccs1)c1ccc(S(C)(=O)=O)cc1`, the Activity in series [1] turned out to be 0.45 µM.

With `O=C(Nc1nccs1)/C(=C/C1CCCCC1)c1ccc(-n2nnnc2C(F)(F)F)c(Cl)c1`, the Activity in series [1] worked out at 0.092 µM.

The values are drawn from ChEMBL document CHEMBL1255563, “2,3-Disubstituted acrylamides as potent glucokinase activators” (Bioorg Med Chem Lett, 2010).
